Source: patent US20240209061A1, “FUSION PROTEINS AND USES THEREOF” (Pfizer Inc., priority 2020, published 2024)

Legend:
human PBMCs (T cells) = assay: Co-stimulation of primary human T cells with CEFT peptide; format: cell-based
Procedure: Serial, 3-fold dilutions of CD80-K89D-D90K-T28V-T57V-Fc and CD80-WT-Fc were prepared in complete IMDM medium (10% FBS, 1% Pen/Strep). CEFT peptide (PM-CEFT, JPT Peptide Technologies) was reconstituted in the same medium to the final concentration of 1 μg/ml. Frozen human PBMCs were thawed following a standard protocol and 250,000 were seeded per well of flat bottom 96-wells plates. CEFT peptide and appropriate concentration of the CD80-Fc fusion proteins were added to the cell suspension. Plates were sealed with breathable plate sealers and incubated for 72 hours at 37° C. in a CO2 incubator. Six hours prior to cell harvest, culture supernatants were collected and stored at −20° C. until used for cytokine analysis by MSD (V-Plex pro-inflammatory panel human kit, Meso Scale Discovery). At the same time brefeldin A solution was added to the cells, to enable intracellular accumulation of cytokines for evaluation by flow cytometry. Upon harvest, cells were stained for surface (among others CD25) and intracellular markers (among others Ki-67 and IFNγ) following a standard flow cytometry staining protocol. Data was collected using BD LSR Fortessa and analyzed using FlowJo v10 software.

CD3+ T cells from PBMCs = assay: Gene expression pattern in primary human T cells (Nanostring); format: cell-based; settings: with anti-human CD3 antibody; 24 hour
Procedure: 96-well plates were coated overnight with 1 μg/ml of anti-human CD3 antibody (HIT3a clone, BioLegend). The following day, plates were washed 2× with PBS and blocked for 1 hour with 200 μl of complete IMDM (10% FBS, 1% Pen/Strep)/well. Upon removal of the blocking medium, plates were seeded with 250,000 PBMCs derived from three different donors and the following proteins: 1) 1.2 μg/ml CD80-K89D-D90K-T28V-T57V-Fc (concentration associated with max IL-2 production in similar assays), 2) 12 μg/ml CD80-WT-Fc (concentration associated with max IL-2 production in similar assay), and 3) 5 μg/ml anti-human CD28 antibody.
After 24 hour incubation at 37° C. in a CO2 incubator, cells were harvested and stained with viability dye and anti-human CD3 (UCHT1 clone, Biolegend)). Viable CD3+ T cells were flow sorted and used for RNA extraction following Qiagen RNeasy protocol. Isolated RNA was used for a gene expression analysis utilizing Nanostring platform.

[1] = mouse, in vivo, iv, 0.1 mg/kg
Procedure: PK of CD80-Fc fusion proteins was also assessed in transgenic mice expressing the human neonatal Fc receptor (huFcRn) a-chain transgene under the control of its natural human promoter. Female mice were dosed intravenously with CD80-Fc fusion proteins at 0.1 mg/kg, and blood was collected at the timepoints indicated on the graph. Levels of CD80-Fc in mouse plasma were measured as described above.

[2] = test system: EMT6 murine breast cancer cells; assay: EMT6 breast cancer model, combination with talazoparib; format: in vivo, mouse; settings: for Day 20 tumor volume: talazoparib 0.33 mg/kg daily where combined; for % tumor growth inhibition: Day 20, talazoparib 0.33 mg/kg where combined
Procedure: EMT6murine breast cancer cells (3×10^5) were orthotopically implanted in the mammary fat pad of female Balb/c mice. When tumors reached ˜90 mm^3 (day 5 after implantation), mice were randomized and dosed with PBS vehicle control, CD80-K89Q-D90Q-E23C-A26C-Fc (0.1 or 1 mg/kg), and/or 0.33 mg/kg talazoparib (Tala). CD80-D90Q-Fc was dosed on Days 0 and 3, talazoparib was dosed daily. Tumor volume was determined by caliper measurements obtained in 2 dimensions and calculated as width^2×length/2. Error bars are depicted as ±SEM

recombinant soluble CD28 = target: T1, recombinant soluble CD28 (Homo sapiens, UniProt P10747); assay: ELISA binding to recombinant soluble CD28; settings: standard ELISA, FIG. 2A
T1 construct: Recombinant soluble CD28 and CTLA-4 proteins (from Creative BioMart, Product #CD28-3910H, CTLA-4-2232H) were immobilized; purchased Creative BioMart CD28-3910H
Procedure: Binding affinity of purified CD80-Fc fusion proteins (WT and variant) to recombinant soluble CD28 and CTLA-4 proteins was determined by standard ELISA. Recombinant soluble CD28 and CTLA-4 proteins (from Creative BioMart, Product #CD28-3910H, CTLA-4-2232H) were immobilized on 96 well microtiter plate (Thermo Scientific, Product #436110) in bicarbonate buffer at 4° C. overnight. After washing with 1×PBS containing 0.05% Tween 20 (wash buffer) plates were incubated with blocking buffer, 5% BSA in PBS, for 1 hour at room temperature. A serial dilution of CD80-Fc fusion proteins and human IgG1 isotype control antibody was prepared in blocking buffer, added into the plate and incubated at room temperature for 1 hour. Following washing 3× with wash buffer, 1:4000 dilution of HRP conjugated secondary anti-human IgG1 antibody (R&D Systems, MAB110-100) was added into the plate and incubated at room temperature for 1 hour. Plates were washed 3× with wash buffer and a 100 μl of LumiGlo (SeraCare, Product #5430-0040) reagent added into each well, incubated for 5 minutes at room temperature before reading luminescence signal in EnSight™ plate reader (PerkinElmer).

[3] = test system: CT26 murine colorectal carcinoma cells; assay: CT26 colorectal carcinoma model, combination with αPD1 antibody; format: in vivo, mouse; settings: for Day 13 tumor volume / % tumor growth inhibition: αPD1 Ab 10 mg/kg where combined; for % tumor growth inhibition: Day 13
Procedure: CT26 murine colorectal carcinoma cells (1×10^6) were subcutaneously implanted in the hind flank of female Balb/c mice. When tumors reached ˜100 mm3 (day 8 after implantation), mice were randomized and dosed with PBS vehicle control, 0.1 mg/kg CD80-D90Q-Fc, and/or 10 mg/kg murine αPD1 antibody. CD80-D90Q-Fc was dosed on Days 0 and 3, αPD1 antibody was dosed on Days 0, 3 and 6. Tumor volume was determined by caliper measurements obtained in 2 dimensions and calculated as width^2×length/2. Error bars are depicted as ±SEM
IFNγ ELIspot was used to measure tumor-reactive T cells in the spleen and TDLNs in mice treated with 1 mg/kg D90Q, αPD1 Ab, or the combination. […] The combination led to an even higher amount of tumor-reactive T cells in the TDLN compared to either agent alone.

[4] = CEFT peptide, compared with CD80-WT-Fc
[5] = CD80-D90Q-Fc 1 mg/kg and/or αPD1 Ab, n=4 per group

CD80-K89D-D90K-T28V-T57V-Fc: non-cysteine stabilized variant CD80-Fc fusion protein (K89D, D90K, T28V, T57V)
increase in CD25 expression of CD8+ T cells (human PBMCs (T cells); [4]): ~30% | increase in Ki-67 staining (proliferative capacity) of CD8+ T cells (human PBMCs (T cells); [4]): ~30% | IFNγ production relative to CD80-WT-Fc (human PBMCs (T cells); MSD in cell supernatant): enhanced IFNγ production | % of IFNγ+CD8+ T cells relative to CD80-WT-Fc (human PBMCs (T cells); flow cytometry): higher % of IFNγ+CD8+ T cells | IL7Rα- and TIGIT-encoding genes relative to anti-human CD3-only baseline, compared to CD80-WT-Fc (CD3+ T cells from PBMCs): greater decrease | expression level of OX-40-encoding gene relative to CD80-WT-Fc (CD3+ T cells from PBMCs): enhanced | expression of anti-apoptotic BCL-XL compared to CD80-WT-Fc (CD3+ T cells from PBMCs): enhanced expression | expression of pro-apoptotic CASP8 compared to CD80-WT-Fc (CD3+ T cells from PBMCs): decreased expression | gene expression of IL-2, IL-21 and Lymphotoxin Alpha (LTA) compared to CD80-WT-Fc (CD3+ T cells from PBMCs): enhanced gene expression | T1/2 [1]: 106 h

CD80-K89Q-D90Q-E23C-A26C-Fc: disulfide stabilized variant CD80-Fc fusion protein (K89Q, D90Q, E23C, A26C)
Day 20 tumor volume ([2]; CD80-Fc dose 0.1 mg/kg): 1149.2 mm^3 | Day 20 tumor volume ([2]; CD80-Fc dose 1 mg/kg): 637.5 mm^3 | % tumor growth inhibition ([2]; CD80-Fc dose 0.1 mg/kg): 43.1% | % tumor growth inhibition ([2]; CD80-Fc dose 1 mg/kg): 70.5%

CD80-D90Q-Fc: variant CD80 ECD (D90Q) fused to human IgG1 Fc
binding affinity to CD28 compared to WT CD80-Fc (recombinant soluble CD28): increased binding affinity to CD28 | Tumor-reactive T cells (IFNγ ELIspot), Spleen [3, 5]: 881.42 | Tumor-reactive T cells (IFNγ ELIspot), TDLN [3, 5]: 361.08 | Day 13 tumor volume ([3]; CD80-Fc dose 0.1 mg/kg): 776.1 mm^3 | Day 13 tumor volume ([3]; CD80-Fc dose 1 mg/kg): 270.4 mm^3 | % tumor growth inhibition ([3]; CD80-Fc dose 0.1 mg/kg): 61.2% | % tumor growth inhibition ([3]; CD80-Fc dose 1 mg/kg): 86.5%

CD80-K89Q-D90Q-Fc: variant CD80 ECD (K89Q, D90Q) fused to human IgG1 Fc
binding affinity to CD28 compared to WT CD80-Fc (recombinant soluble CD28): increased binding affinity to CD28
